Counter-ions that a name gives are not always drawn. Calls of active or inactive are those of the source.
Columns and labels:
[1] = system: HeLa; assay: HeLa cell cytotoxicity, dose response, cytotoxicity control for MITF activator project, CellTiter-Glo luminescence, cherry-pick samples (AID 540259); format: functional, cell-based; details: Homo sapiens
[2] = system: HEK293; assay: cells; format: functional, cell-based; details: Homo sapiens
[3] = biological target: T1, Nuclear receptor subfamily 0 group B member 1 (Homo sapiens, UniProt P51843); assay: Luminescence-based cell-based high throughput dose response assay for inhibitors of the orphan nuclear receptor subfamily 0, group B, member 1 (DAX1; NR0B1). [Related pubchem assays (depositor defined):AID504766, AID504790]; format: functional
T1 sequence (P51843 whole entry): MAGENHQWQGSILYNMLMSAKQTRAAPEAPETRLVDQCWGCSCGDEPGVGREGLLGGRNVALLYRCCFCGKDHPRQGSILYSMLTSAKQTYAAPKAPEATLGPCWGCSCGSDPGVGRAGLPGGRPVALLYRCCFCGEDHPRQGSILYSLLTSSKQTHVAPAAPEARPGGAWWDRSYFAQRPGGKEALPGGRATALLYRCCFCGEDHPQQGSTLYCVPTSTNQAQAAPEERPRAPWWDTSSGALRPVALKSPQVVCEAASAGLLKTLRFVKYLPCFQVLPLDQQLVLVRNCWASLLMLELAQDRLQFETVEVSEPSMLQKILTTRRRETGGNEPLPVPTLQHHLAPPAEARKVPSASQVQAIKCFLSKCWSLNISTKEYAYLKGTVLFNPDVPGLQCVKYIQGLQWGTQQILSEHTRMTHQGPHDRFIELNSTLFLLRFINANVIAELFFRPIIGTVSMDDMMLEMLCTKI

[4] = system: BJ; assay: cytotoxicity toward BJ-TERT fibroblasts, dose response, cell-based, RAS-independent, luminescence (AID 1933); format: functional; details: Homo sapiens
[5] = system: BJ; assay: cells; format: functional, cell-based; details: Homo sapiens
[6] = system: BJ; assay: cytotoxicity toward BJ-TERT-LT-ST fibroblasts, dose response, cell-based, RAS-independent, luminescence (AID 1935); format: functional; details: Homo sapiens;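 also: BJ fibroblasts immortalized with TERT plus LT and ST oncogenes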
[7] = cytotoxicity toward DRD oncogenic fibroblasts, dose response, cell-based, non-viral oncogenic, luminescence (AID 1934); format: functional; details: Homo sapiens
[8] = system: BJ; assay: cytotoxicity toward Ras-transformed BJeLR fibroblasts, dose response, cell-based, alamar blue fluorescence, cherrypicked samples (AID 2631); format: functional; details: Homo sapiens;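 also: confirmatory dose-response assay in RAS-dependent BJ fibroblasts engineered with TERT, LT and ST, with cytotoxicity read by fluorescence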
[9] = biological target: Luciferin 4-monooxygenase (Photinus pyralis, UniProt P08659); assay: firefly luciferase enzyme inhibitors, dose response, biochemical, luminescence (AID 1891)
Luciferin 4-monooxygenase, sequence (P08659 whole entry): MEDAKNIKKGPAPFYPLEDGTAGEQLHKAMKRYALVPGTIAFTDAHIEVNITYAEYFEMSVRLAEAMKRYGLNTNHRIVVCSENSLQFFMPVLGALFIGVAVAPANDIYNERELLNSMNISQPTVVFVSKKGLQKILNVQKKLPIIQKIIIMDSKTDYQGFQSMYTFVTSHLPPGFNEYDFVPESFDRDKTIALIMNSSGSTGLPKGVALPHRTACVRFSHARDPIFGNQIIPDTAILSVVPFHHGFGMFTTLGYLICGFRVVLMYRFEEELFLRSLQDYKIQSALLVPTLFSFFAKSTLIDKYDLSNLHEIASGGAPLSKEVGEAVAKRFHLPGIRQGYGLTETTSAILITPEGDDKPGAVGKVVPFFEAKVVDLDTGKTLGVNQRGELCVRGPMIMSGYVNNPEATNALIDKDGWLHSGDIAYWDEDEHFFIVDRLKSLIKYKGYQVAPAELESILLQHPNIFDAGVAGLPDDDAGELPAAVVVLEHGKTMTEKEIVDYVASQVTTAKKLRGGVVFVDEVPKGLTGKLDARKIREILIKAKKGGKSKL

[10] = Luminescence Cell-Based Dose Confirmation HTS to Identify Inhibitors of Platelet Dense Granule Release. [Related pubchem assays: 1663 (Primary HTS), 1678 (Summary of Project)]; format: functional
[11] = NIH-3T3 fibroblast cytotoxicity, dose response, cytotoxicity control, cell-based, fluorescence, Alamar Blue, secondary assay (AID 2327); format: functional;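 also: NIH-3T3 mouse fibroblasts cultured with fluconazole at 8 µg/mL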
[12] = C. albicans growth with fluconazole, confirmation, fluorescence, retest (AID 2467); format: functional, cell-based
[13] = biological target: T2, Serine/threonine-protein phosphatase (Candida dubliniensis (strain CD36 / CBS 7987 / NCPF 3949 / NRRLY-17841) (Yeast), UniProt B9W6M3); assay: calcineurin pathway inhibitors in yeast reporter, dose response, S. cerevisiae, CDRE-lacZ, luminescence, secondary (AID 2388); format: functional, cell-based;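 also: yeast reporter cells carrying a calcineurin-responsive lacZ construct stimulated with calcium chloride; luminescent beta-galactosidase reporter signal in whole cells rather than isolated phosphatase activity; potency for inhibition where a drop in reporter signal means calcineurin blockade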
T2 sequence (B9W6M3 whole entry): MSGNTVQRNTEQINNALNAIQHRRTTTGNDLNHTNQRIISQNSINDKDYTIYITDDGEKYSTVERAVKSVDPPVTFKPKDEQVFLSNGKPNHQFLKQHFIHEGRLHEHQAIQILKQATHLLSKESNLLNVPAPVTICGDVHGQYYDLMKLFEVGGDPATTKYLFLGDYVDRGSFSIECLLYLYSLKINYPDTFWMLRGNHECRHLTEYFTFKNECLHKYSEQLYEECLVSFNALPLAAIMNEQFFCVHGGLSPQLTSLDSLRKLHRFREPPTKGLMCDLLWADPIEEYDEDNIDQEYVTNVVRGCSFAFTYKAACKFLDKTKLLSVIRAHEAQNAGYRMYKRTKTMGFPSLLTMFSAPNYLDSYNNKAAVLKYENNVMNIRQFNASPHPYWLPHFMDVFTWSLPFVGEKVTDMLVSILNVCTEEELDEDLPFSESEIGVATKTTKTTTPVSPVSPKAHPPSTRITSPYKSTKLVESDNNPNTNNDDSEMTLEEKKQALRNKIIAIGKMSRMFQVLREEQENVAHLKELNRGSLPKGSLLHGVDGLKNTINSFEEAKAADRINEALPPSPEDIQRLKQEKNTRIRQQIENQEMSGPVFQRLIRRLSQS

[14] = biological target: ATP-dependent molecular chaperone HSP82 (Candida albicans (strain WO-1) (Yeast), UniProt C4YTQ8); assay: loss of DOC-induced GRE-beta-galactosidase reporter signal, dose response, Hsp90 inhibitor project, S. cerevisiae, luminescence (AID 2400); format: functional, cell-based;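 also: beta-galactosidase luminescence from glucocorticoid response element reporter as proxy for Hsp90 function; inhibitor potency where signal loss means Hsp90 inhibition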
ATP-dependent molecular chaperone HSP82, sequence (C4YTQ8 whole entry): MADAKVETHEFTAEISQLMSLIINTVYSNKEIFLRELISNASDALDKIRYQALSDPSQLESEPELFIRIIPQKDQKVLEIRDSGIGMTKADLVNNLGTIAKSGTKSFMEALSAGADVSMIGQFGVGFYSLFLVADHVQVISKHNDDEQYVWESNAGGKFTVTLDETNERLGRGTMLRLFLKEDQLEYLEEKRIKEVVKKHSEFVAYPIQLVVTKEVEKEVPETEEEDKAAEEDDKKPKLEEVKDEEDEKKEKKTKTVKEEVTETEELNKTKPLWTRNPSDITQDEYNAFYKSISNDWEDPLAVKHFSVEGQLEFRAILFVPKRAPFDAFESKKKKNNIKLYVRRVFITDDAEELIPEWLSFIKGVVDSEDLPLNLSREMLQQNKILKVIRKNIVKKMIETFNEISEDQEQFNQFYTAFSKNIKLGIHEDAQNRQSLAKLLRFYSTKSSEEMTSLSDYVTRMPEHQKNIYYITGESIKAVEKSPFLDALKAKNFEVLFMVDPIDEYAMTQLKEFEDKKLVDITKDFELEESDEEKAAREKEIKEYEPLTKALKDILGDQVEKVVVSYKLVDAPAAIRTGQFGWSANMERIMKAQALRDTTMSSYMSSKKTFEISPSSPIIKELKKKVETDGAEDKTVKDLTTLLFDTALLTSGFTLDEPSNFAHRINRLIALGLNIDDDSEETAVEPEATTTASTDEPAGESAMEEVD

[15] = biological target: T3, Apoptotic protease-activating factor 1 (Homo sapiens, UniProt O14727); format: functional
T3 sequence (O14727 whole entry): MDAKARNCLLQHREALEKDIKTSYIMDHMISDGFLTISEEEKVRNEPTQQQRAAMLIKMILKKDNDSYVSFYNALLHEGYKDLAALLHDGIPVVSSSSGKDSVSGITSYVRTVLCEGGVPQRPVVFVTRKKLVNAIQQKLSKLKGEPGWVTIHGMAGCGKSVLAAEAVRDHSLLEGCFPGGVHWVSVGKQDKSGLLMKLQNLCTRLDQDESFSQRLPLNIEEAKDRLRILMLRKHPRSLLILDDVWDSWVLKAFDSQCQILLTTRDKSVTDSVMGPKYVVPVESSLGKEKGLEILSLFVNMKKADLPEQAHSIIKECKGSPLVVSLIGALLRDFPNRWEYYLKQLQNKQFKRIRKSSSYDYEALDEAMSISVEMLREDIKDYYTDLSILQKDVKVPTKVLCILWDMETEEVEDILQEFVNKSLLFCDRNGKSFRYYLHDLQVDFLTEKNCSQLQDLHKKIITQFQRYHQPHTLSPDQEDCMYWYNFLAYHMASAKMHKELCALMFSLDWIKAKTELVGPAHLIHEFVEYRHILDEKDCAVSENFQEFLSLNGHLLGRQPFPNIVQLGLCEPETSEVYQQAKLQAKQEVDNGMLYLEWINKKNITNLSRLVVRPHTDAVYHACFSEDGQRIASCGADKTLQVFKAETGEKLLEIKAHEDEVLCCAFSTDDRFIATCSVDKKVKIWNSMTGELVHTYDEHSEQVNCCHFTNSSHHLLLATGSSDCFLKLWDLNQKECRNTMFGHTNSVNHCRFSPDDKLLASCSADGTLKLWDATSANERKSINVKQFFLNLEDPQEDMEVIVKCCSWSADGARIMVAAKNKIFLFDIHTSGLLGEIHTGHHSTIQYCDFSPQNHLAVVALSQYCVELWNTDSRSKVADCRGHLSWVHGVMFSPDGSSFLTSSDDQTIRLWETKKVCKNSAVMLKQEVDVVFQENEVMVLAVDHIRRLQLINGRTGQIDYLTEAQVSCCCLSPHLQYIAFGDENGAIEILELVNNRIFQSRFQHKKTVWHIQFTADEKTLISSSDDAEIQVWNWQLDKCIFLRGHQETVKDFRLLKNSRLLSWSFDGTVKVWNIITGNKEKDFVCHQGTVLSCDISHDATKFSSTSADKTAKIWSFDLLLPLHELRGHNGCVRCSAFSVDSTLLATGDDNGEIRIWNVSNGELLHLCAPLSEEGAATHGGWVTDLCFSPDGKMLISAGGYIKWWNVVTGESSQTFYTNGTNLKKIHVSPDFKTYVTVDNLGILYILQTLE

[16] = system: HEK293; assay: inhibitors of LMP1-driven NF-kB reporter, dose response, cell-based, HEK293, luciferase, cherry-pick (AID 588343); format: functional; details: Homo sapiens
[17] = system: Escherichia coli; assay: microbe, parasite or virus in culture
[18] = system: Escherichia coli; assay: microbe, parasite or virus in culture; remark: listed apart in the source
[19] = system: Vero; assay: Vero cell cytotoxicity, cytotoxicity control for flavivirus capping enzyme inhibitors (AID 588742); format: functional; details: Chlorocebus sabaeus
[20] = biological target: Genome polyprotein (dengue virus type 2, UniProt P29990); assay: Dengue-2 NS5 methyltransferase inhibitors, primary screen, biochemical, confirmation dose response (AID 588689); format: functional
Genome polyprotein, sequence (P29990 2492-3391 limits assumed): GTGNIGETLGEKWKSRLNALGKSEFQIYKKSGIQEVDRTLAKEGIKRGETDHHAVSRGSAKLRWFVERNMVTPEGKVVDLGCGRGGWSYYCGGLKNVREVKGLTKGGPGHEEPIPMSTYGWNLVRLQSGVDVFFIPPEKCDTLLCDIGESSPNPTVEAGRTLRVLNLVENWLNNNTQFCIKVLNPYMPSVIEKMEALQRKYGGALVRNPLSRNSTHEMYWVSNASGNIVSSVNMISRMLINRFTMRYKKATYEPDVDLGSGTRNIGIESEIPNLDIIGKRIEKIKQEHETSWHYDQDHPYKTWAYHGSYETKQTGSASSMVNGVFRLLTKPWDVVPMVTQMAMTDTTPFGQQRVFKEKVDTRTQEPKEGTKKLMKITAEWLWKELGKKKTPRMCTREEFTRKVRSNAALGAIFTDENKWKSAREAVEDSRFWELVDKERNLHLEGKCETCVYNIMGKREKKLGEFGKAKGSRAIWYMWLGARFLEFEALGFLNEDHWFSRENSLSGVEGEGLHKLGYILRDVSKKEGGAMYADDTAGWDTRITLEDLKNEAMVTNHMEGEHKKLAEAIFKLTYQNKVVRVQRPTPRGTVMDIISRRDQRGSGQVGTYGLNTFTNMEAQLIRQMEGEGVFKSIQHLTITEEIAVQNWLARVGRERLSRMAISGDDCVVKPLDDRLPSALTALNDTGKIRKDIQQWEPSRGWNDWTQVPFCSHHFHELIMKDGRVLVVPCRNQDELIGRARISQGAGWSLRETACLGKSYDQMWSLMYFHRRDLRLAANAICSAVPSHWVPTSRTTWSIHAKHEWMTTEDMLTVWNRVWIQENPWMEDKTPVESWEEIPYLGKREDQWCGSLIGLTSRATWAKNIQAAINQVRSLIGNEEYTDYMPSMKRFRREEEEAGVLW

[21] = THP-1 cell cytotoxicity, dose response, cytotoxicity control for Vif-APOBEC3G degradation inhibitor project, THP-1 cells (AID 1117359); format: functional; details: Human immunodeficiency virus 1, THP-1
[22] = system: Vero; assay: cells; format: functional; details: Chlorocebus sabaeus

Structure (SMILES): c1ccc(CCn2nnc3ccccc32)cc1
- AC50 [1]: 207 µM (active)

Structure (SMILES): CCOc1cccc(C(=O)NC2=NCCS2)c1
- IC50 [2]: > 67.5 µM (inactive)
- IC50 [3]: > 67.5 µM (inactive)

Structure (SMILES): Cc1cccc(OCC(=O)Nc2ccc(C(=O)NCc3cccnc3)cc2)c1
- EC50 [4]: > 150 µM (not active)
- EC50 [5]: 8.97 µM (inconclusive)
- EC50 [6]: > 150 µM (inconclusive)
- EC50 [7]: > 150 µM (not active)
- EC50 [8]: 17.3 µM (active)

Structure (SMILES): CN(C)/C=C(/C(=O)c1ccc(Cl)c(Cl)c1)c1nnnn1-c1ccccc1
- IC50 [2]: > 67.5 µM (inactive)
- IC50 [3]: > 67.5 µM (inactive)

Structure (SMILES): CCSc1nnc(NC(=O)C2CC2c2ccccc2)s1 (stereo not given)
- EC50 [9]: > 112 µM (not active)
- EC50 [10]: > 112 µM (not active)
- IC50 [2]: > 67.5 µM (inactive)
- IC50 [3]: > 67.5 µM (inactive)

Structure (SMILES): CC(C)(C)c1ccc(Cc2nnc(S)nc2O)cc1
- EC50 [11]: > 160 µM (inactive)
- EC50 [12]: 0.368 µM (active)
- EC50 [13]: 20.2 µM (active)
- EC50 [14]: 9.48 µM (active)

Structure (SMILES): Cc1cc(CNC(=O)c2cc(COc3ccc(F)c(F)c3)on2)nn1C
- AC50 [1]: 66.8 µM (active)

Structure (SMILES): Cc1nn2c(-c3ccncc3)nnc2c2ccccc12
- IC50 [15]: 5.15 µM (active)

Structure (SMILES): CN(C)c1ccnc2sc3c(SCc4ccc(Cl)cc4)ncnc3c12
- AC50 [1]: 63.3 µM (active)

Structure (SMILES): CCOC(=O)c1nc(NCc2ccccc2F)c2ccccc2n1
- AC50 [16]: > 350 µM (inactive)
- AC50 [17]: > 150 µM (inactive)
- AC50 [18]: 52.7 µM (active)

Structure (SMILES): Cc1cc(C)c2c(N)c(C(=O)Nc3ccc(C)c(C)c3)sc2n1
- IC50 [2]: > 67.6 µM (inactive)
- IC50 [3]: > 67.6 µM (inactive)

Structure (SMILES): O=C(/C(=N/N=C/c1ccc(O)c(O)c1O)c1ccccc1)c1ccccc1
- EC50 [11]: > 150 µM (inactive)
- EC50 [12]: 4.04 µM (active)
- EC50 [13]: > 180 µM (inactive)
- CC50 [19]: 9.15 µM (active)
- IC50 [20]: 50.1 µM (active)
- EC50 [14]: 5.97 µM (active)
- CC50 [21]: 16.6 µM (active)

Structure (SMILES): O=C(N/N=C/c1cccn1-c1ccc([N+](=O)[O-])cc1)c1cccnc1
- CC50 [22]: > 25 µM (active)

Structure (SMILES): COc1ccc2c(c1)CC/C2=N\OC(=O)c1ccccc1C
- AC50 [1]: 51.1 µM (active)

Structure (SMILES): CC1=C(CC[C@@H](C)CO)O[C@H]2C[C@H]3[C@@H]4CC[C@H]5C[C@@H](O)CC[C@]5(C)[C@H]4CC(=O)[C@]3(C)[C@@H]12
- EC50 [11]: > 150 µM (inactive)
- EC50 [12]: 0.383 µM (active)
- EC50 [13]: > 180 µM (inactive)
- EC50 [14]: > 150 µM (inactive)

Structure (SMILES): COc1cc2nc(N3CCN(C(=O)c4ccco4)CC3)nc(N)c2cc1OC [PRAZOSIN HYDROCHLORIDE]
- CC50 [22]: 16.9 µM (active)

Source: ChEMBL document CHEMBL1201862, “PubChem BioAssay data set” (2004)
